US20220402948A1, “EGFR INHIBITOR, COMPOSITION AND PREPARATION METHOD THEREFOR” (BETTA PHARMACEUTICALS CO., LTD., priority 2019, published 2022)

Key:
[1] = target: Ba/F3 cells with EGFR Δ19del/T790M/C797S mutation gene stably overexpressed (Homo sapiens, UniProt P00533, T790M/C797S, cells depend on it, form not given); test: Ba/F3-Δ19del/T790M/C797S cell proliferation assay (CellTiter Glo, 72 hours); assay type: cell-based; conditions: Table 2, read-out: EGFR Δ19del/T790M/C797S IC50
Description: (§1) Cell line: Ba/F3 cells with EGFR Δ19del/T790M/C797S mutation gene stably overexpressed named Ba/F3-Δ119del/T90M/C797S, and A431 and Ba/F3-EGFR wild-type cell line.
(§2) a) Centrifuge the growth cells in logarithmic phase at 1000 rpm for 5 minutes, resuspend the cells in culture medium, and then count the cells;
(§3) b) Inoculate the cells into a 96-well cell culture plate with a density of 2000 cells/well;
(§4) b) Incubate cells in an incubator for another 72 hours.
(§5) a) Take out the 96-well cell culture plate and add 50 μl CTG reagent (CellTiter Glo kit, promega, Cat #G7573);
(§6) b) Shake the plate for 2 minutes and let cool at room temperature for 10 minutes;
(§7) c) Read luminous signal value with PerkinElmer reader,
(§8) Analysis of Experimental Data
(§9) The data were analyzed by GraphPad Prism 6.0 software to obtain the fitting curve of compound activity.
(§10) Y=Min+(Max−Min)/(1+10^((Log IC50−X)*slope));
(§11) X: Logarithm of compound concentration; Y: luminous signal.

[2] = target: EGFRΔ19del/T790M/C797S (Homo sapiens, UniProt P00533, T790M/C797S, form not given); test: EGFR Δ19del/T790M/C797S kinase test (mobility variation analysis, Caliper EZ Reader); assay type: biochemical; conditions: kinase enzymatic activity, Table 1
Description: (§12) Mobility variation analysis was performed to determine the affinity of the compound for EGFRΔ19del/T790M/C797S, EGFR WT and IGF1R. The enzymatic reaction scheme is as follows:
(§13) 1. Prepare 1*kinase buffer as follows.
(§14) 3. […] Prepare 2.5-fold final concentration of kinase solution with 1×Kinase buffer.
(§15) 4. Add 10 μL of 2.5-fold final concentration of kinase solution to the compound well and the positive control well; add 10 μL of 1×Kinase buffer to the negative control well.
(§16) 5. Centrifuge at 1000 rpm for 30 s, shake the reaction plate for well mixing, and then incubate at room temperature for 10 minutes.
(§17) 6. Prepare a mixture of ATP and Kinase substrate at 5/3-fold final concentration with 1×Kinase buffer.
(§18) 8. Centrifuge the 384-well plate at 1000 rpm for 30 s, shake it well and then incubate it at room temperature for corresponding time.
(§19) 9. Add 30 μL of stop detection solution to stop the kinase reaction, centrifuge at 1000 rpm for 30 s, and shake it well.
(§20) 10. Read conversion rate with Caliper EZ Reader.
(§21) % Inhibition=((Conversion%_max−Conversion%_sample)/(Conversion%_max−Conversion%_min))*100
(§22) Wherein: Conversion%_sample is the sample conversion rate reading; Conversion%_min: Mean value of negative control wells, representing the conversion rate reading of wells without enzymatic activity; Conversion%_max: Mean value of positive control wells, representing the conversion rate reading of wells without compound inhibition.
(§23) The dose-effect curve was fitted with concentration log value as X-axis and percentage inhibition rate as Y-axis. GraphPad Prism 5 analysis software was used for fitting Log (inhibitor) vs. response—Variable slope with the dose-effect curve to obtain IC50 value of enzymatic activity for each compound.
(§24) The calculation formula is as Y-Bottom+(Top-Bottom)/(1+10^((Log IC50−X)*HillSlope)).

[3] = target: EGFR WT (Homo sapiens, UniProt P00533); test: EGFR WT kinase test (mobility variation analysis, Caliper EZ Reader); assay type: biochemical; conditions: kinase enzymatic activity, Table 1
Description: as §12, §13, §14, §15, §16, §17, §18, §19, §20, §21, §22, §23, §24

[4] = test system: A431; test: A431 cell proliferation assay (CellTiter Glo, 72 hours); assay type: cell-based; conditions: Homo sapiens, A-431, 72 h, cell proliferation, A431, 72 hours, Table 2; read-out: A431 IC50
Description: as §1
RPMI 1640 and 10% FBS and 1% PS; DMEM and 10% FBS and 1% PS.
a) Dilute the test compound (20 mM stock solution) to 10 mM with 100% DMSO as the starting concentration, and then serially dilute 3 times with a “9+0” concentration in 96-well dilution plate (Cat #P-05525, Labcyte);
b) Dilute compound solution thereof to 1:100 (1:20 for comparative compound 1 and compounds 1-38) in medium to prepare 10-fold working solution;
as §2, §3
a) Compounds prepared at step 2 were added to cell plate with 15 μl per well, the final concentrations were 1000, 333, 111.1, 37, 12.3, 4.1, 1.4, 0.5, 0.2 and 0 nM, and the final concentration of DMSO was 0.1%. The blank control well was a culture medium (0.1% DMSO) (the blank control well of comparative compound 1 and compounds 1-38 was a culture medium (0.5% DMSO).
as §4, §5, §6, §7, §8, §9
Fitting compound IC50 from nonlinear regression equation:
as §10, §11

[5] = target: IGF1R (Homo sapiens, UniProt P08069); test: IGF1R kinase test (mobility variation analysis, Caliper EZ Reader); assay type: biochemical; conditions: kinase enzymatic activity, Table 1; read-out: EGFR IGF1R IC50
Description: as §12, §13
2. Preparation of compound concentration gradient: The test compound was tested with an initial concentration of 3000 nM (300 nM for some triple mutations and 100 nM for others), diluted in a 384 source plate (96-well plate for comparative compound 1 and compounds 1-38) to a 100% DMSO solution with 100-fold final concentration, and the compound is 3-fold diluted with Precision to 10 concentrations. A dispenser Echo 550 was used to transfer 250 nL 100-fold final concentration of the compound to the target plate OptiPlate-384F.
3. Prepare 2.5-fold final concentration (5-fold for comparative compound 1 and compounds 1-38) of kinase solution with 1×Kinase buffer. Following steps should also be carried out for comparative compound 1 and compounds 1-38: Add each prepared intermediate dilution compounds to the compound wells of 384-well plate respectively, and test the repeated wells of each concentration; add 5% DMSO of 5 plates into the negative control well and the positive control well respectively. Prepare 2.5-fold final concentration of kinase solution with 1×Kinase buffer.
as §15, §16, §17
7. Add 15 μL mixture of 5/3-fold (2.5-fold for comparative compound 1 and compounds 1-38) final concentration of ATP and substrate to start reaction.
as §18, §19, §20, §21, §22, §23, §24

Chain of EGFR WT (P00533 25-1210): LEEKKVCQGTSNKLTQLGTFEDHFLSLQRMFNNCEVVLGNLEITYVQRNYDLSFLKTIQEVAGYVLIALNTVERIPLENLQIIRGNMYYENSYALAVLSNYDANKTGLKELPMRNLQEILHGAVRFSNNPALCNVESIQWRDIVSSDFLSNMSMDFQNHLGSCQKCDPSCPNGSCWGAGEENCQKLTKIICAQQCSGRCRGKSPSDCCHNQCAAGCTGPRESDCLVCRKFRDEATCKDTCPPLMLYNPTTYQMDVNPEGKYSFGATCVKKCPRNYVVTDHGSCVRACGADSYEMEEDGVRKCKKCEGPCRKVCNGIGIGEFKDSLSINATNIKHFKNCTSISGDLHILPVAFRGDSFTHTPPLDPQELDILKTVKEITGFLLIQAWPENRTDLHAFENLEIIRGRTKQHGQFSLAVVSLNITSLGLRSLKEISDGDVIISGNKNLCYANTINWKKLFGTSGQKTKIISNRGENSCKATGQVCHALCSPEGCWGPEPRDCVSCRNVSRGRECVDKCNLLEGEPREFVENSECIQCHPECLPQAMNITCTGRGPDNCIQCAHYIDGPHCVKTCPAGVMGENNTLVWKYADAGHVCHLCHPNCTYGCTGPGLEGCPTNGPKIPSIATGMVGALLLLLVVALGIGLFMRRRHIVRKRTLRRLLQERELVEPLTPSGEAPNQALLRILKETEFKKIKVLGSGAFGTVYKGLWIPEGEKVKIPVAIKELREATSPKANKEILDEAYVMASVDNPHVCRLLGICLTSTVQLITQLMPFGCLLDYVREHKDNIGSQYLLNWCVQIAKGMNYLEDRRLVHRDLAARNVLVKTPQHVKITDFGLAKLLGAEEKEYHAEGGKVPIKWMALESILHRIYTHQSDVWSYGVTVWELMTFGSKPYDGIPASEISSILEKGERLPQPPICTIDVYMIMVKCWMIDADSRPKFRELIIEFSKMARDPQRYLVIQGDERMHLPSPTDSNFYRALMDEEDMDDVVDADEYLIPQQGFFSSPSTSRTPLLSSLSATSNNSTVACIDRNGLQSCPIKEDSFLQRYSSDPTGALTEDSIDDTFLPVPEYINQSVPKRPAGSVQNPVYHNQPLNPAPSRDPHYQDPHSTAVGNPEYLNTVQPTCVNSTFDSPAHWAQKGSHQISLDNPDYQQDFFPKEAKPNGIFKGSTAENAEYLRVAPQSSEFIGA
Chain of IGF1R (P08069 31-1367, species assumed): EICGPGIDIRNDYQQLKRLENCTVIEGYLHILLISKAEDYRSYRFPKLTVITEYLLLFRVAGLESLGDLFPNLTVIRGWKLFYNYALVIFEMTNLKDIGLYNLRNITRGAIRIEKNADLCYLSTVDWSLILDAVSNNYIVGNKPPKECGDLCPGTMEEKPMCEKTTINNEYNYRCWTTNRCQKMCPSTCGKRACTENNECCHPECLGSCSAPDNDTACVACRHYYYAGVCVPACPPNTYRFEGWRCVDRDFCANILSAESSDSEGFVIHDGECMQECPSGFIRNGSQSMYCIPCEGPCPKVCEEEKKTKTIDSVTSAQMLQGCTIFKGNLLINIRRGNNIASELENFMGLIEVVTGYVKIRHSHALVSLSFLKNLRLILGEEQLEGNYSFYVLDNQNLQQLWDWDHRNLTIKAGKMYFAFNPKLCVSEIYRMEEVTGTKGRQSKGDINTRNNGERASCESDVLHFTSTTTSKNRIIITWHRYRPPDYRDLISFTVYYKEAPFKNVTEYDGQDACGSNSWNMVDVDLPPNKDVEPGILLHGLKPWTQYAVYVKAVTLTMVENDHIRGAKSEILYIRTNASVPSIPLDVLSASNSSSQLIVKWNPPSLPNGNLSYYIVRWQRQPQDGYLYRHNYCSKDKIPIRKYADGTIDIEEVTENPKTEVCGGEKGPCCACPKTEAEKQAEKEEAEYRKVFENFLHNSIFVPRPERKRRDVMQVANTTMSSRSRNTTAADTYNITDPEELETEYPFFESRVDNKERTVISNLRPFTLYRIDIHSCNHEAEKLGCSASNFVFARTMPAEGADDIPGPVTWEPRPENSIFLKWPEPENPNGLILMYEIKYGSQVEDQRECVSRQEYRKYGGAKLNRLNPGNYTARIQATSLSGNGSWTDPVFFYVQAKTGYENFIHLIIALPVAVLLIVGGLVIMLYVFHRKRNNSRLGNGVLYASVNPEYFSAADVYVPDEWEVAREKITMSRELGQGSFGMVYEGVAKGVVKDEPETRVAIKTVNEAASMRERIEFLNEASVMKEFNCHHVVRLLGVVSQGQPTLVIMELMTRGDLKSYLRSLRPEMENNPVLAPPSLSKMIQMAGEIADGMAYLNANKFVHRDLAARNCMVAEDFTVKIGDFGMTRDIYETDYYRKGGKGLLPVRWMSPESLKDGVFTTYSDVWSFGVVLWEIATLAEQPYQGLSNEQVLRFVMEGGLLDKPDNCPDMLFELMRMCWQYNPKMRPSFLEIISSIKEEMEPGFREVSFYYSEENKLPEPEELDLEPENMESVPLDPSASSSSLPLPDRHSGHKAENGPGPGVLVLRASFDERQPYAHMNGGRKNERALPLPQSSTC
Chain of EGFRΔ19del/T790M/C797S (P00533 with tags, fused parts or gaps DEL746-750/T790M/C797S, form open): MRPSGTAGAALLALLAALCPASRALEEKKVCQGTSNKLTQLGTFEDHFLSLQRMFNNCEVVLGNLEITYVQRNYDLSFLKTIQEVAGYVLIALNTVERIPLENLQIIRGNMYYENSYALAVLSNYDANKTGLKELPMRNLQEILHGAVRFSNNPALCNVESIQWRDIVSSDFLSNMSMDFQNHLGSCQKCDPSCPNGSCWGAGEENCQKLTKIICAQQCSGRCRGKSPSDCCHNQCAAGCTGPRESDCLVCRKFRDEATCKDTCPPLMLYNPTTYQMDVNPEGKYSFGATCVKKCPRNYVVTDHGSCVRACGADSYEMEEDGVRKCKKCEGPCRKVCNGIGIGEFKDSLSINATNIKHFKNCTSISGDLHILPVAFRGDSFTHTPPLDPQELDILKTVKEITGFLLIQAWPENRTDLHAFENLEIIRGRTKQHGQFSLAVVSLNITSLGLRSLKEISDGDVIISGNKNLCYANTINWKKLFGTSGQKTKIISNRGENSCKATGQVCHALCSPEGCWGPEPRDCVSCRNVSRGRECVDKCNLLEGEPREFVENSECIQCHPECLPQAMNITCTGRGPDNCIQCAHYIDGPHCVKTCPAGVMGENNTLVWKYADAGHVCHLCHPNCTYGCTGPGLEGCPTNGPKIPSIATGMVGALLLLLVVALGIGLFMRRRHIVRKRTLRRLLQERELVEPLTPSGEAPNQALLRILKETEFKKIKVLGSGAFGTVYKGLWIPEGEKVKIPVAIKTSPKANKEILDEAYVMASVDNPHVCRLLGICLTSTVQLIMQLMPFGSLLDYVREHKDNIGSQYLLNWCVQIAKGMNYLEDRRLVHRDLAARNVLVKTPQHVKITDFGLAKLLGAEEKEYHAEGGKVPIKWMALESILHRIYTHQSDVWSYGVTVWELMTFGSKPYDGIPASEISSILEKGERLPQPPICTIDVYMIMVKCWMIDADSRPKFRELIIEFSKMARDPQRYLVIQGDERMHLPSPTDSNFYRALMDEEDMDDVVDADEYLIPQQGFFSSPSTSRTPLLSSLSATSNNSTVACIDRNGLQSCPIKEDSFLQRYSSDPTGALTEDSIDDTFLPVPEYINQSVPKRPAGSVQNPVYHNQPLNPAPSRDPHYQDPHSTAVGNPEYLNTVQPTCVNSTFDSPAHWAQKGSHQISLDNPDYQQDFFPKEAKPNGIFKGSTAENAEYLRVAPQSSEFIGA
Chain of Ba/F3 cells with EGFR Δ19del/T790M/C797S mutation gene stably overexpressed (P00533 with tags, fused parts or gaps DEL746-750/T790M/C797S, form open): as above

| Compound | GI50 [1] | IC50 [2] | IC50 [3] | IC50 [4] | IC50 [5] |
| --- | --- | --- | --- | --- | --- |
| CCc1cc(Nc2ncc(Br)c(Nc3ccc(-c4nn(C)c5ncccc45)cc3P(C)(C)=O)n2)c(OC)cc1N1CCC(N2CCN(C)CC2)CC1 [Compound 9, (2-((5-Bromo-2-((5-ethyl-2-methoxy-4-(4-(4-methylpiperazin-1-yl)piperidin-1-yl)phenyl)amino)pyrimidin-4-yl)amino)-5-(1-methyl-1H-pyrazol[3,4-b]pyridin-3-yl)phenyl)dimethylphosphine oxide] | 23.1 nM | 0.4 nM | 63.4 nM | 1450 nM | 826 nM |
| CCc1cc(Nc2ncc(Br)c(Nc3ccc(-c4ccc(C#N)cc4)cc3P(C)(C)=O)n2)c(OC)cc1N1CCC(N2CCN(C)CC2)CC1 [Compound 10] | 9.7 nM | 0.6 nM | 19.5 nM | 14300 nM | 109 nM |
| CCc1cc(Nc2ncc(Br)c(Nc3ccc(-c4cccc5c4COC5)cc3P(C)(C)=O)n2)c(OC)cc1N1CCC(N2CCN(C)CC2)CC1 [Compound 11, (2-((5-Bromo-2-((5-ethyl-2-methoxy-4-(4-(4-methylpiperazin-1-yl)piperidin-1-yl)phenyl)amino)pyrimidin-4-yl)amino)-5-(1,3-dihydroisobenzofuran-4-yl)phenyl)dimethylphosphine oxide] | 18.9 nM | 0.6 nM | 28.6 nM | 1020 nM | 494 nM |
| CCc1cc(Nc2ncc(Br)c(Nc3ccc(-c4nccs4)cc3P(C)(C)=O)n2)c(OC)cc1N1CCC(N2CCN(C)CC2)CC1 [Compound 12, (2-((5-Bromo-2-((5-ethyl-2-methoxy-4-(4-(4-methylpiperazin-1-yl)piperidin-1-yl)phenyl)amino)pyrimidin-4-yl)amino)-5-(thiazol-2-yl)phenyl)dimethylphosphine oxide] | 10.7 nM | 1.1 nM | 13 nM | 989 nM | 310 nM |
| CCc1cc(Nc2ncc(Br)c(Nc3ccc(-c4cncc(OC)n4)cc3P(C)(C)=O)n2)c(OC)cc1N1CCC(N2CCN(C)CC2)CC1 [Compound 13] | 40.5 nM | 0.4 nM | 31.1 nM | 1680 nM | 182 nM |
| CCc1cc(Nc2ncc(Cl)c(Nc3ccc(-c4cscn4)cc3P(C)(C)=O)n2)c(OC)cc1N1CCC(N2CCN(C)CC2)CC1 [Compound 14, (2-((5-Chloro-2-((5-ethyl-2-methoxy-4-(4-(4-methylpiperazin-1-yl)piperidin-1-yl)phenyl)amino)pyrimidin-4-yl)amino)-5-(thiazol-4-yl)phenyl)dimethylphosphine oxide] | 14.5 nM | 0.4 nM | 13.9 nM | 769 nM | 149 nM |
| CCc1cc(Nc2ncc(Cl)c(Nc3ccc(-c4ccc5ocnc5c4)cc3P(C)(C)=O)n2)c(OC)cc1N1CCC(N2CCN(C)CC2)CC1 [Compound 17, (5-(Benzo[d]oxazol-5-yl)-2-((5-chloro-2-((5-ethyl-2-methoxy-4-(4-(4-methylpiperazin-1-yl)piperidin-1-yl)phenyl)amino)pyrimidin-4-yl)amino)phenyl)dimethylphosphine oxide] | 30 nM | 0.7 nM | 20.1 nM | 2200 nM | 363 nM |
| CCc1cc(Nc2ncc(Cl)c(Nc3ccc(-c4ncc(F)cn4)cc3P(C)(C)=O)n2)c(OC)cc1N1CCC(N2CCN(C)CC2)CC1 [Compound 18, (2-((5-Chloro-2-((5-ethyl-2-methoxy-4-(4-(4-methylpiperazin-1-yl)piperidin-1-yl)phenyl)amino)pyrimidin-4-yl)amino)-5-(5-fluoropyrimidin-2-yl)phenyl)dimethylphosphine oxide] | 13.2 nM | 0.7 nM | 20.3 nM | 1270 nM | 126 nM |

More lines, now with the values ahead:

| GI50 [1] | IC50 [2] | IC50 [3] | IC50 [4] | IC50 [5] | Compound |
| --- | --- | --- | --- | --- | --- |
| 29.6 nM | 0.6 nM | 22 nM | 864 nM | 144 nM | CCc1cc(Nc2ncc(Cl)c(Nc3ccc(-c4nccc(OC)n4)cc3P(C)(C)=O)n2)c(OC)cc1N1CCC(N2CCN(C)CC2)CC1 [Compound 19, (2-((5-Chloro-2-((5-ethyl-2-methoxy-4-(4-(4-methylpiperazin-1-yl)piperidin-1-yl)phenyl)amino)pyrimidin-4-yl)amino)-5-(4-methoxypyrimidin-2-yl)phenyl)dimethylphosphine oxide] |
| 8.8 nM | 0.7 nM | 25.6 nM | 1390 nM | 224 nM | CCc1cc(Nc2ncc(Br)c(Nc3ccc(-c4ncc(C)cn4)cc3P(C)(C)=O)n2)c(OC)cc1N1CCC(N2CCN(C)CC2)CC1 [Compound 21, (2-((5-Bromo-2-((5-ethyl-2-methoxy-4-(4-(4-methylpiperazin-1-yl)piperidin-1-yl)phenyl)amino)pyrimidin-4-yl)amino)-5-(5-methylpyrimidin-2-yl)phenyl)dimethylphosphine oxide] |
| 20.5 nM | 0.3 nM | 40.8 nM | 831 nM | 120 nM | CCc1cc(Nc2ncc(Br)c(Nc3ccc(-c4cncnc4)cc3P(C)(C)=O)n2)c(OC)cc1N1CCC(N2CCN(C)CC2)CC1 [Compound 22, (2-((5-Bromo-2-((5-ethyl-2-methoxy-4-(4-(4-methylpiperazin-1-yl)piperidin-1-yl)phenyl)amino)pyrimidin-4-yl)amino)-5-(pyrimidin-5-yl)phenyl)dimethylphosphine oxide] |
| 22.4 nM | 0.4 nM | 37.6 nM | 1700 nM | 169 nM | CCc1cc(Nc2ncc(Cl)c(Nc3ccc(-c4cnc(OC)nc4)cc3P(C)(C)=O)n2)c(OC)cc1N1CCC(N2CCN(C)CC2)CC1 [Compound 25, (2-((5-Chloro-2-((5-ethyl-2-methoxy-4-(4-(4-methylpiperazin-1-yl)piperidin-1-yl)phenyl)amino)pyrimidin-4-yl)amino)-5-(2-methoxypyrimidin-5-yl)phenyl)dimethylphosphine oxide] |
| 15.2 nM | 0.2 nM | 20.7 nM | 8870 nM | 118 nM | CCc1cc(Nc2ncc(Br)c(Nc3ccc(-c4ncc(OC)cn4)cc3P(C)(C)=O)n2)c(OC)cc1N1CCC(N2CCN(C)CC2)CC1 [Compound 30] |
